# Legend:
# Type in all cases: cell-based
# Meg-01 = test: Polyploidization of Meg-01 cells
# [1] = tested on: CD41+ megakaryocyte fraction; test: Polyploidization of primary human megakaryocytes (CD34+ cells cultured with TPO), CD41+ fraction; conditions: CD34+ cells cultured with TPO 12 days, compound added after 9 days
# Procedure: FIG. 4 illustrates that DMF induces polyploidization of normal human megakaryocytes and that its activity is restricted to the CD41+ population. Human CD34+ cells were cultured with TPO for 12 days and then fixed and stained with DAPI. DMSO or DMF were added to the culture after 9 days. DNA content was then assessed by flow cytometry. Numbers above the bar indicate % of cells ≧8N.
# In collaboration with the Broad Institute, a high throughput screen for small molecules was conducted to identify small molecules that preferentially induce polyploidization or differentiation of megakaryocytes. We screened 10,000 compounds from the Broad's extensive collection of small molecules (including known bioactives, kinase and HDAC inhibitors, and natural products) to identify inducers of megakaryocyte polyploidization. The screen was performed in the following manner: 1) 4,000 CMK (human megakaryocytic leukemia) cells were plated into each well of a 384-well plate, 2) 100 n1 of compounds (yielding a final concentration of 10 μM) were pinned into the wells, 3) plates were incubated at 37° C. for 72 hours, 4) cells were fixed and stained with Hoescht, and 5) plates were imaged using an ImageXpressMICRO high content imager with 20× objective. Nine images per well were collected. 6) Data were analyzed using both MetaXpress software and “Cell Profiler,” software designed at MIT and the Broad Institute. […]
# [2] = tested on: human AMKL leukemic cells; test: CFU-MK assay, bone marrow samples from patients with AMKL; conditions: 5 μM, 14 days, AMKL patient bone marrow
# Procedure: FIG. 8 illustrates that DMF blocks the growth of human AMKL leukemic cells. Mononuclear cells from patients with AMKL were cultured in methylcellulose in the presence of either DMSO or 5 μM of DMF.
# Data with Patient Samples. Two lead compounds were tested on samples from both MPD (myeloproliferative disease) patients and AMKL (acute megakaryocytic leukemia) patients. […] Referring to FIG. 5, bone marrow mononuclear cells from a patient with ET were cultured with two doses of DMF for 10 days. […] Referring to FIG. 8, bone marrow samples from patients with AMKL were cultured in DMSO (control) or DMF (at 5 μM) for 14 days. Colonies were stained with anti-CD41 antibody and visualized by microcopy (not shown). Total numbers of CD41+ megakaryocyte colonies are shown.
# AMKL Patient Specimens. Frozen bone marrow mononuclear cells of acute megakaryocytic leukemia (AMKL) were obtained from human patients with help from the Children's Oncology Group (COG). After thawing, cells were resuspended in IMDM media without serum. The cells were stained with 0.4% trypan blue solution for 5 minutes and live cells were counted. Live cells were assayed for leukemic potential in a CFU-MK assay (details below).
# CFU-MK (Colony forming units-megakarvocvtes) assay. […] Slides were scored microscopically, and megakaryocyte colonies were defined as colonies with at least three megakaryocytes.
substance,measurement,setting,value
dimethylfasudil [DMF],induction of polyploidization,Meg-01,potent inducer of polyploidization
same,polyploidization of primary human megakaryocytes,[1],potently induced polyploidization
same,growth of human leukemia cells (CD41+ megakaryocyte colonies),[2],potently blocked growth

# Source: patent US8933071B2, “Dimethyl fasudil for inducing polyploidization of megakaryocytes and for treating blood and bone marrow diseases and disorders” (Northwestern University, priority 2008, dated 2015)
